Reference: US20140350092A1, “METHOD FOR […] VIRUS INFECTION” (Natura Corporation, priority 2003, published 2014)

Legend:
Japan cedar pollen [1] = test: Assay of pollen enclosure (pollen rouleaux formation / pollen aggregation)
Description: In order to assay the actions of pectin and nucleic acid, contained in the contact preventive biological preparation of the present invention, on pollen, the following experiments were carried out. In the following experiments, by “pollen rouleaux formation” is meant a state in which a plurality of pollen particles continue linearly, and by “pollen aggregation” is meant a state in which a plurality of pollen particles constitute a bulk. Both “pollen rouleaux formation” and “pollen aggregation” denote a state in which pollen particles are captured by a medium and their free movement is inhibited, and as the degree thereof increases, the power of enclosing pollen increases.
Japan cedar pollen was put in a first water solution containing pectin (#168-00555 by Wako Pure Chemical Industries, Ltd.), in a second water solution containing glycerin, in a third water solution containing pectin and glycerin, and in a fourth water solution containing DNA (DN-JA0904, DK-JB0218 by Daiwa Fine Chemical Co. Ltd.), RNA (R6625 by Sigma), amino acid, and glycerin, and these water solutions were subjected to incubation for ten minutes at room temperature to prepare pollen developed liquids.
Each pollen developed liquid was instilled in the form of a drop onto a slide glass and was allowed to stand. After being dried, the test sample was stained by means of a ruthenium red solution and a gentian violet alcohol solution, and the assay of pollen rouleaux formation was examined microscopically.
In order to comparatively examine the actions of enclosing pollen by pectins, uronic acid-containing substances, and mucopolysaccharides according to the present invention, the following twelve kinds of samples were examined in the same way as the first exemplary embodiment. The twelve samples were: YM115-H; LM101-AS; Type DF; SLENDID type 100; SLENDID type 200; LM104AS-FS; LM-SCS; USP-H; USP-L; LH-105AS; AS Confectionary; and YM150-LJ by Genu.

[2] = after ingestion versus before ingestion; cited from earlier work
[3] = tested on: neuraminidase of the type A influenza virus; test: enzymatic activity of influenza-virus neuraminidase (synthetic coloring substrate); format: biochemical
Description: The activity of neuraminidase of the type A influenza virus was analyzed by an enzymic reaction with a synthetic coloring substrate (Gene Stat Flu Kit by Nichirei). This enzymic reaction is based on the power of neuraminidase to cut acetyl neuraminic, and darker solution's blue-coloring result indicates higher enzymatic activity.
A virus test body, taken from the larynx of a type A influenza infected patient, was divided into two sample pieces, i.e., a control sample and a sample used for the evaluation of the anti-enzyme activity of pectins.

[4] = Comparison in action with commercially available eyedrop and nosedrop biological preparations; parameters: species or system human; settings: in vivo
Excerpt: Conventional, commercially available eyedrop and nosedrop biological preparations against pollenosis symptoms were compared with the biological preparations according to the present invention in the action with respect to the manifestation of pollenosis symptoms.
The commercially available nosedrop biological preparations contain a vasopressor agent, an antihistamic agent, a bactericidal substance, a fragrant material et cetera.

[5] = Application testing of eyedrop and nosedrop biological preparations on pollenosis sufferer; format: in vivo, human
Description: The contact preventive biological preparation according to the present invention was applied to eyedrop and nosedrop biological preparations and their application tests were carried out on test subjects. These eyedrop and nosedrop biological preparations according to the present exemplary embodiment contain therein pectin (type DF et cetera by Genu) and DNA (Daiwa Fine Chemical Co. Ltd.) at the following contents.
The content of pectin and the content of DNA are: pectin (0.03 to 1.0%); DNA (0.05 to 1.0%); 0.5% pectin+0.5% DNA; 0.8% pectin+0.2% DNA; and 0.2% pectin+0.8% DNA.
Pollenosis sufferers were test subjects, and the degree of improvement in itching symptom when each eyedrop biological preparation was administrated at the time of the development of an allergic reaction and its duration and application (use) feeling (the degree of uncomfortable feeling) were examined. The results thus obtained were evaluated according to the following evaluation standards.

[6] = tested on: basophiles in the blood of a pollenosis sufferer; test: emission of histamine from basophiles in the blood of a pollenosis sufferer; format: cell-based, human
Description: Blood sampling from a pollenosis sufferer was carried out, and basophiles recognized by a cell surface marker were separated by means of a magnet method. Then, the basophiles thus separated were exposed to a pollen extraction component fixed onto a micro plate, and emitted histamine was quantitatively measured by an absorbance method through a coloring reaction making use of antihistamic antibodies (HRT by Shionogi & Co., Ltd.).
A control sample making use of only a buffering solution, a sample comprising a pectin-containing buffering solution, and a nucleic acid-containing sample were prepared, and the rate of liberation of histamine with respect to the increase of allergen was comparatively examined. In the experiment, a cedar pollen extraction antigen was used as an allergen.

[7] = tested on: pollenosis sufferer's white blood cells; test: in vitro cluster formation by pollenosis sufferer's white blood cells and pollen; format: cell-based, human; settings: pollen dispersed in 0.3% pectin water solution
Description: White blood cells separated from the blood of a pollenosis sufferer was subjected to incubation on a slide glass with cedar pollen fixed thereonto.

Japan cedar pollen [8] = test: Assay of pollen enclosure (pollen rouleaux formation / pollen aggregation); settings: in biological preparations (artificial tears, nose spray, mouth washer) and drug solutions

## OB(O)O [boric acid]
Japan cedar pollen [1]
  effect on pollen aggregation / dispersion: promoted the aggregation of pollen
  pollen burst: causing pollen to burst

## N[C@@H](CCC(=O)O)C(=O)O [glutamic acid]
Japan cedar pollen [1]
  effect of additive on the pollen enclosing action of pectin: reinforce the action of enclosing pollen by pectin

## OC[C@H]1O[C@H](O[C@H]2O[C@H](CO)[C@@H](O)[C@H](O)[C@H]2O)[C@H](O)[C@@H](O)[C@@H]1O [trehalose]
Japan cedar pollen [1]
  effect of additive on the pollen enclosing action of pectin: reinforced

## apple pectin
[2]
  drop of concentration of histamine in the blood: 24%

## carboxymethyl cellulose
Japan cedar pollen [1]
  effect of additive on the pollen enclosing action of pectin: reinforced

## carrageenan [carrageenan (K-100J), reference compound]
Japan cedar pollen [1]; comparison of samples, same way as first exemplary embodiment
  pollen enclosing power: less significant in pollen enclosing power than the others

## cluster dextrin
Japan cedar pollen [1]
  effect of additive on the pollen enclosing action of pectin: reinforced

## heparin [reference compound]
[3]; heparin 20 unit/ml
  neuraminidase enzymatic activity (blue color reaction): color exhibition of blue coloring became dull

## methyl cellulose
Japan cedar pollen [1]
  effect of additive on the pollen enclosing action of pectin: reinforced

## pectin
[4]
  irritation / sensation on application: felling of drying
[5]; eyedrop, FIG. 3, 0.5% pectin or 0.5% DNA
  curative properties against the symptoms: obvious curative properties against the symptoms
[5]; eyedrops of a pectin concentration of 0.5% or more
  application feeling: caused a sticky feeling
[5]; pectin from 0.03 to 1%, used alone
  curative properties against pollenosis symptoms (itching and snuffles): curative properties against pollenosis symptoms
Japan cedar pollen [1]; no pectin or pectin at a low concentration of less than 0.3%
  pollen rouleaux formation: no rouleaux capture of cedar pollen was detected
Japan cedar pollen [1]; pectin from about 0.03 to about 3.0%
  pollen rouleaux formation: pollen rouleaux formation was promoted
[6]; 0.03% pectin alone, FIG. 2
  effect of preventing the liberation of histamine: impossible for a 0.03% pectin-containing sample alone to provide a satisfactory effect
[6]; 0.03% pectin, cedar pollen extraction antigen, FIG. 1
  liberation of histamine from basophiles: inhibited over a wide range
[6]; pectin about 0.1% to about 0.3%, high-concentration cedar pollen
  liberation of histamine from basophiles: inhibited
[7]
  accumulation of white blood cells on pollen: no tendency to accumulate on pollen
[3]; 0.05% pectin (USD-H by Genu)
  neuraminidase enzymatic activity (blue color reaction): no color reaction was observed
Japan cedar pollen [8]
  pollen enclosing function of pectin in presence of other components: exerted satisfactorily without any interference
